Measurements from PMC11476959, “Structural Insights and Catalytic Mechanism of 3-Hydroxybutyryl-CoA Dehydrogenase from Faecalibacterium Prausnitzii A2-165” (International Journal of Molecular Sciences, 2024).

Legend:
[1] = molecular target: T1, 3-hydroxybutyryl-CoA dehydrogenase of A2-165 (A2HBD; A2-165 BHBD) (Faecalibacterium duncaniae, UniProt C7H5K9); test: microscale thermophoresis; format: binding
T1 construct: gene FAEPRAA2165_01580; full-length (Met1-Leu290 printed, 867 bp gene), C-terminal 6xHis kept, pET21a, E. coli BL21(DE3); hexamer in solution; N-terminus MKIGVI and C-terminus TPVDQ-LE(H6) from the printed primers; Leu290 probably comes from the XhoI site

[2] = molecular target: 3-hydroxybutyryl-CoA dehydrogenase of Faecalibacterium prausnitzii A2-165 (Faecalibacterium prausnitzii A2-165); test: SEC-MALS; 2.018 mg/mL A2HBD on Superdex 200 Increase, 20 mM Tris-HCl pH 8.0, 150 mM NaCl, 0.3 mL/min; main peak 92% of the scattered mass

T1 sequence (C7H5K9 entry or part of it): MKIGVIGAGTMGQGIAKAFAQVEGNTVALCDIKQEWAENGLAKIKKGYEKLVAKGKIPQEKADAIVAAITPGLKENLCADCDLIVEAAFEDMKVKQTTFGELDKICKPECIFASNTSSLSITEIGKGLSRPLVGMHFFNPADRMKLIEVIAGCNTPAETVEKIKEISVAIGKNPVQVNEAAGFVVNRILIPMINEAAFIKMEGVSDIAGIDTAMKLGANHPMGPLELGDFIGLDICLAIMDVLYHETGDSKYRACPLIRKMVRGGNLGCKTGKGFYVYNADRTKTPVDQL

Row | Molecule | Kd [1] | stoichiometry N [2]
1 | CC(=O)CC(=O)SCCNC(=O)CCNC(=O)[C@H](O)C(C)(C)COP(=O)(O)OP(=O)(O)OC[C@H]1O[C@@H](n2cnc3c(N)ncnc32)[C@H](O)[C@@H]1OP(=O)(O)O [acetoacetyl-CoA] | 23.9 µM | –
2 | 3-hydroxybutyryl-CoA dehydrogenase of Faecalibacterium prausnitzii A2-165 (enzyme) | – | 6
3 | NC(=O)c1ccc[n+]([C@@H]2O[C@H](COP(=O)(O)OP(=O)(O)OC[C@H]3O[C@@H](n4cnc5c(N)ncnc54)[C@H](O)[C@@H]3O)[C@@H](O)[C@H]2O)c1 [NAD^+] | 347 µM | –
